Assay results reported in patent publication US20170216401A1, “COMBINATION FOR USE IN A METHOD OF TREATING CANCER” (priority 2014, published 2017).

Tests used:
[1] = test system: TGF-beta signal transduction; details: p-SMAD2 western blot (Gaspar et al., 2007); cited from earlier work
[2] = test system: human glioma cells HTZ-349 and A-172; assay: cell-mediated tumor cytotoxicity assay, calcein release (CARE-LASS); format: cell-based; details: PBMC and target cells preincubated 6 days with SD-208, IL-2 and GM-CSF; effector/target 1:100, 1:10, 1:1; 4 hours; FIG. 2
Description: Establishment and culture of primary tumor cell cultures were performed as previously described (Jachimczak et al., 1993). Briefly, tumor specimens were cultivated in Dulbecco's minimum essential medium (DMEM) containing 10% FCS, 1% BME vitamin solution, and 1% MEM nonessential amino acids. HTZ-349 was established as primary cell culture from a patient suffering from glioblastoma multiforme (GBM, Grade IV). A-172 cells were obtained from ATCC (GBM). Peripheral blood mononuclear cells (PBMC) were isolated from venous blood of two healthy donors by standard Ficoll-Hypaque gradient centrifugation (Jachimczak et al., 1993).
PBMC were activated with IL-2 (Proleukin S) and GM-CSF. Immune cell cytotoxicity against the target tumor cells was determined in a calcein-release assay (Lichtenfels et al., 1994) by adding pre-activated PBMC to glioma target cells at an effector/target ratio of 1:100, 1:10 and 1:1. After 4 hours, fluorescence of supernatants was analyzed (Fluoroscan, Germany) and calculated as described (Lichtenfels et al., 1994).

Fc1ccc(Cl)cc1-c1nc(Nc2ccncc2)c2nccnc2n1 [SD-208]
inhibition of TGF-beta signal transduction [1]: inhibits TGF-beta signal transduction in a dose-dependent fashion | allogenous cell cytotoxicity against glioma target cells [2]: enhanced
